# In patent publication US8557233B2, “Probiotic bifidobacterium strains” (Alimentary Heath Limited, priority 2007, dated 2013):
# Test system: B. longum AH1206
# Assay: Minimum inhibitory concentration (MIC) of antibiotics
# Type: cell-based, Bifidobacterium longum
# Settings: against B. longum AH1206
# Procedure: Antibiotic sensitivity profiles of the B. longum strain was determined using the ‘disc susceptibility’ assay. Cultures were grown up in the appropriate broth medium for 24-48 h spread-plated (100 μl) onto agar media and discs containing known concentrations of the antibiotics were placed onto the agar. Strains were examined for antibiotic sensitivity after 1-2 days incubation at 37° C. under anaerobic conditions. Strains were considered sensitive if zones of inhibition of 1 mm or greater were seen. The minimum inhibitory concentration (MIC) for each antibiotic was independently assessed.
row,SMILES,minimum inhibitory concentration (MIC)
1,CN[C@H](CC(C)C)C(=O)N[C@H]1C(=O)N[C@@H](CC(N)=O)C(=O)N[C@H]2C(=O)N[C@H]3C(=O)N[C@H](C(=O)N[C@H](C(=O)O)c4cc(O)cc(O)c4-c4cc3ccc4O)[C@H](O)c3ccc(c(Cl)c3)Oc3cc2cc(c3O[C@@H]2O[C@H](CO)[C@@H](O)[C@H](O)[C@H]2O[C@H]2C[C@](C)(N)[C@H](O)[C@H](C)O2)Oc2ccc(cc2Cl)[C@H]1O [vancomycin],0.75
2,Cc1ncc([N+](=O)[O-])n1CCO [metronidazole],0.38
3,CCC[C@@H]1C[C@@H](C(=O)N[C@@H]([C@H]2O[C@H](SC)[C@H](O)[C@@H](O)[C@H]2O)[C@H](C)Cl)N(C)C1 [clindamycin],0.32
